Laboratory results from patent US9949486B2, “Agrochemical composition comprising a N,N#-disubstituted (thio)urea for the improvement of crop productivity” (Crop Intellect Ltd., priority 2014, dated 2018).

Key:
Type in all cases: in vivo
[1] = system: Lettuce; assay: Lettuce greenhouse trial, foliar treatment
Description: (§1) Lettuce, beans, wheat and tomatoes were selected as plants to test the efficacy of the invention. Short term crops were grown in the greenhouse to ensure controlled condition and long term crops were grown outdoors in replicated trials. All relevant parameters to evaluate efficacy were tested including chlorophyll content, sugar levels, Mg and Fe tissue content, yield and quality characteristics. All trials were performed to good experimental practice (GEP) standards with adequate replication to conform to statistical comparisons. Environmental condition were monitored and kept the same between treatments for evaluation. John Innes soil based compost with low nutrient contents was used for the experiments and sieved to ensure uniformity. The applications were made to be applied at the equivalent of 5 lt/ha of end product in 180 lt of water. Treatments were administered foliarly just before runoff point. The magnesium and iron were in the form of Sulphate.

[2] = system: Beans; assay: Beans greenhouse trial, foliar treatment; details: equivalent of 5 lt/ha
Description: as §1, with “Sulphate. […] Larger plants expressed as weight per plant was observed together with an increase in chlorophyll content, Mg and Fe content in the plant tissue and leaf diameter (which promotes resource capture). A reduction in internode length was also observed which is favourable for many greenhouse and outdoor vegetable crops.” for “Sulphate.”

[3] = system: Tomatoes; assay: Tomatoes trial under glass, foliar treatment; details: equivalent of 5 lt/ha
Description: as §1
The trial on tomatoes under glass had shown a significant increase in yield and quality characteristics with the application of the present invention. […] The internode length reduced on average by 20% which is desirable for tomato plants grown under glass due to the infrastructure restrictions and efforts towards vegetative growth.

[4] = lettuce, foliar, equivalent of 5 lt/ha

## O=C(Nc1ccccc1)Nc1ccccc1 [DPU, 1,3-diphenylurea]
[1]; lettuce fresh weight (yield st. error ±8), foliar, equivalent of 5 lt/ha of end product in 180 lt of water
  Yield: 213 g
[1]; lettuce tissue, dry weight, foliar, equivalent of 5 lt/ha
  Fe content (mg/kg dw): 254 mg/kg dw
[1]; lettuce tissue, fresh weight, foliar, equivalent of 5 lt/ha
  Mg content (mg/kg fw): 480 mg/kg fw
[1]; [4]
  Chlorophyll (mg/cm^2): 0.029 mg/cm^2
  Leaf number: 28
  Sugar level (%): 5.5%
[1]; lettuce, weight loss after 7 days in ambient temperature (indication of shelf life)
  Weight loss (%): 22%
[2]; beans plant tissue
  Fe content: 86 mg/kg
  Mg content (%): 0.42%
[2]; beans
  Chlorophyll (mg/cm^2): 0.025 mg/cm^2
  Internode length: 7
  Leaf diameter (cm): 7.8 cm
[2]; beans, fresh weight of above ground plant at 6 wks (st. error ±10)
  Yield: 364 g
[3]; average fruit fresh weight
  Yield: 132 g
[3]
  Chlorophyll (mg/cm^2): 0.031 mg/cm^2
  Firmness (turgor MPa): 0.08 MPa
  Internode length: 8.1
  Sugar level (%): 6.8%
